Results as given in patent US9321767B2, “Azabenzimidazoles as respiratory syncytial virus antiviral agents” (JANSSEN SCIENCES IRELAND UC, priority 2010, dated 2016).
Where two headings read alike, the source gives them in different places.

Tests used:
[1] = test system: rgRSV224 virus; assay: microbe, parasite or virus in culture; format: cell-based, respiratory syncytial virus (RSV); conditions: for SI CC50/EC50: ratio of CC50 (HeLa cytotoxicity) to EC50 (RSV)
Method: (§1) Black 96-well clear-bottom microtiter plates (Corning, Amsterdam, The Netherlands) were filled in duplicate using a customized robot system with serial 4-fold dilutions of compound in a final volume of 50 μl culture medium [RPMI medium without phenol red, 10% FBS, 0.04% gentamycin (50 mg/mL) and 0.5% DMSO]. Then, 100 μl of a HeLa cell suspension (5×10^4 cells/mL) in culture medium was added to each well followed by the addition of 50 μl rgRSV224 (MOI=0.02) virus in culture medium using a multidrop dispenser (Thermo Scientific, Erembodegem, Belgium). rgRSV224 virus is an engineered virus that includes an additional GFP gene (Hallak et al, 2000) and was in-licensed from the NIH (Bethesda, Md., USA). Medium, virus- and mock-infected controls were included in each test. Cells were incubated at 37° C. in a 5% CO2 atmosphere. Three days post-virus exposure, viral replication was quantified by measuring GFP expression in the cells by a MSM laser microscope (Tibotec, Beerse, Belgium). The EC50 was defined as the 50% inhibitory concentration for GFP expression. In parallel, compounds were incubated for three days in a set of white 96-well microtitier plates (Corning) and the cytotoxicity of compounds in HeLa cells was determined by measuring the ATP content of the cells using the ATPlite kit (PerkinElmer, Zaventem, Belgium) according to the manufacturer's instructions. The CC50 was defined as the 50% concentration for cytotoxicity.

[2] = test system: HeLa cells; assay: Cytotoxicity in HeLa cells, ATP content (ATPlite kit); format: cell-based; conditions: HeLa cells, three days incubation, ATP content
Method: as §1

[3] = rgRSV224 in HeLa cells, three days post-virus exposure, GFP expression, read-out: WT activity EC50
[4] = human respiratory syncytial virus, HeLa, 72 h, read-out: RSV-wt_EC50
[5] = human respiratory syncytial virus, HeLa, 72 h, read-out: WT activity EC50

`O=c1n(Cc2nc3nc(Cl)ccc3n2CCCC(F)(F)F)c2cnccc2n1CC(F)(F)F` [Compound 71] was tested, and the “SI CC50/EC50” value [1] was over 108383 and the EC50 [1, 3] was 0.923 nM.

With `O=c1n(Cc2nc3nc(Cl)ccc3n2CCCCF)c2cnccc2n1C1CC1` [Compound 40, 3-((5-chloro-1-(4-fluorobutyl)-1H-imidazo[4,5-b]pyridin-2-yl)methyl)-1-cyclopropyl-1H-imidazo[4,5-c]pyridin-2(3H)-one] the EC50 [1, 4] was 2 nM and the TOX-HELA_EC50 [2] was over 98.3603 µM.

For `CC(C)CCn1c(Cn2c(=O)n(C3CC3)c3ccncc32)nc2nc(Cl)ccc21` [Compound 1, 3-((5-chloro-1-isopentyl-1H-imidazo[4,5-b]pyridin-2-yl)methyl)-1-cyclopropyl-1H-imidazo[4,5-c]pyridin-2(3H)-one], the EC50 [1, 4] was 0.365 nM and the TOX-HELA_EC50 [2] was over 9.836 µM.

For `O=C(NCCCCn1c(Cn2c(=O)n(C3CC3)c3ccncc32)nc2nc(Cl)ccc21)OC1CCCC1` [Compound 82], the “SI CC50/EC50” value [1] was 5649 and the EC50 [1, 3] was 17.1 nM.

Work on `CC(C)CCn1c(Cn2c(=O)n(C3CC3)c3ccncc32)nc2cc(C#N)cnc21` [Compound 27, 2-((1-cyclopropyl-2-oxo-1H-imidazo[4,5-c]pyridin-3(2H)-yl)methyl)-3-isopentyl-3H-imidazo[4,5-b]pyridine-6-carbonitrile] yielded an EC50 [1, 4] of 34100 nM and a TOX-HELA_EC50 [2] of over 98.3603 µM.

`CC(C)CCn1c(Cn2c(=O)n(C3CC3)c3ccccc32)nc2cnccc21` [Compound 31] was tested, and the EC50 [1, 4] was 5.4 nM and the TOX-HELA_EC50 [2] was over 9.836 µM.

Work on `CC(C)CCn1c(Cn2c(=O)n(C3CC3)c3ccccc32)nc2nc(Cl)ccc21` [Compound 13, 3-((5-chloro-1-isopentyl-1H-imidazo[4,5-b]pyridin-2-yl)methyl)-3-cyclopropyl-1H-benzo[d]imidazol-2(3H)-one] yielded an EC50 [1, 4] of 2.3 nM and a TOX-HELA_EC50 [2] of over 9.84 µM.

For `O=c1n(Cc2nc3ncccc3n2CCCCF)c2cnccc2n1CC(F)(F)F` [Compound 85], the “SI CC50/EC50” value [1] was 1436 and the EC50 [1, 3] was 8.54 nM.

For `CC(=O)OCCCCn1c(Cn2c(=O)n(C3CC3)c3ccncc32)nc2nc(Cl)ccc21` [Compound 64], the “SI CC50/EC50” value [1] was over 18058 and the EC50 [1, 3] was 5.54 nM.

With `O=c1n(Cc2nc3nc(F)ccc3n2CCCC(F)(F)F)c2cnccc2n1C1CC1` [Compound 69] the “SI CC50/EC50” value [1] was over 1318 and the EC50 [1, 3] was 75.8 nM.

For `CC(C)CCn1c(Cn2c(=O)n(C3COC3)c3ccncc32)nc2nc(Cl)ccc21` [Compound 2, 3-((5-chloro-1-isopentyl-1H-imidazo[4,5-b]pyridin-2-yl)methyl)-1-(oxetan-3-yl)-1H-imidazo[4,5-c]pyridin-2(3H)-one], the EC50 [1, 4] was 1.58 nM and the TOX-HELA_EC50 [2] was over 9.836 µM.

Molecule `CC(C)CCn1c(Cn2c(=O)n(C3COC3)c3ccncc32)nc2cnccc21` [Compound 36] has an EC50 [1, 4] of 94.9 nM and a TOX-HELA_EC50 [2] of over 9.836 µM.

With `CC(C)CCn1c(Cn2c(=O)n(C3CC3)c3ccncc32)nc2nc(C(=N)N)ccc21` [Compound 105] the EC50 [1, 5] was 0.316 nM and the “SI CC50/EC50” value [1] was over 330179.

`CC(C)CCn1c(Cn2c(=O)n(C3CC3)c3ccc(F)cc32)nc2ncccc21` [Compound 8, 1-cyclopropyl-5-fluoro-3-((1-isopentyl-1H-imidazo[4,5-b]pyridin-2-yl)methyl)-1H-benzo[d]imidazol-2(3H)-one] was tested, and the EC50 [1, 4] was 15.9 nM and the TOX-HELA_EC50 [2] was over 9.836 µM.

In the case of `COC(=O)NCCCCn1c(Cn2c(=O)n(C3CC3)c3ccncc32)nc2nc(Cl)ccc21` [Compound 68], the “SI CC50/EC50” value [1] is reported as over 12208 and the EC50 [1, 3] is reported as 8.19 nM.

With `O=c1n(Cc2nc3nc(Cl)ccc3n2CCCCO)c2cnccc2n1C1CC1` [Compound 14, 3-((5-chloro-1-(4-hydroxybutyl)-1H-imidazo[4,5-b]pyridin-2-yl)methyl)-1-cyclopropyl-1H-imidazo[4,5-c]pyridin-2(3H)-one] the EC50 [1, 4] was 6 nM and the TOX-HELA_EC50 [2] was over 9.84 µM.

In the case of `CC(C)OC(=O)NCCCCn1c(Cn2c(=O)n(C3CC3)c3ccncc32)nc2ncccc21` [Compound 81], the “SI CC50/EC50” value [1] is reported as over 1380 and the EC50 [1, 3] is reported as 72.4 nM.

`CC(C)(O)CCCn1c(Cn2c(=O)n(C3CC3)c3ccncc32)nc2nc(Cl)ccc21` [Compound 75, 3-((5-chloro-1-(4-hydroxy-4-methylpentyl)-1H-imidazo[4,5-b]pyridin-2-yl)methyl)-1-cyclopropyl-1H-imidazo[4,5-c]pyridin-2 (3H)-one] was tested, and the EC50 [1, 5] was 1.58 nM and the “SI CC50/EC50” value [1] was over 63325.

With `N#CCCCn1c(Cn2c(=O)n(C3CC3)c3ccncc32)nc2ccc(Cl)nc21` [Compound 49] the EC50 [1, 5] was 1450 nM and the “SI CC50/EC50” value [1] was over 68.

`CC(C)CCn1c(Cn2c(=O)n(CC(F)(F)F)c3ccncc32)nc2nc(Cl)ccc21` [Compound 90] was tested, and the “SI CC50/EC50” value [1] was 36156 and the EC50 [1, 3] was 2.6 nM.

With `NC(=O)NCCCCn1c(Cn2c(=O)n(C3CC3)c3ccncc32)nc2nc(Cl)ccc21` [Compound 74] the “SI CC50/EC50” value [1] was over 1997 and the EC50 [1, 3] was 5.01 nM.

`CC1=C(NCCCCn2c(Cn3c(=O)n(C4CC4)c4ccncc43)nc3nc(Cl)ccc32)c2ccccc2S1(=O)=O` [Compound 80] was tested, and the “SI CC50/EC50” value [1] was over 9628 and the EC50 [1, 3] was 10.4 nM.

`O=C(Nc1ccc(F)cc1C(F)(F)F)OCCCCn1c(Cn2c(=O)n(C3CC3)c3ccncc32)nc2nc(Cl)ccc21` [Compound 83] was tested, and the “SI CC50/EC50” value [1] was 4731 and the EC50 [1, 3] was 14 nM.

`COc1ccc(NC(=O)OCCCCn2c(Cn3c(=O)n(C4CC4)c4ccncc43)nc3nc(Cl)ccc32)cc1` [Compound 79] was tested, and the “SI CC50/EC50” value [1] was 1711 and the EC50 [1, 3] was 23.3 nM.

In the case of `O=c1n(Cc2nc3ncccc3n2CCCc2ccccn2)c2cnccc2n1C1CC1` [Compound 94], the “SI CC50/EC50” value [1] is reported as over 748 and the EC50 [1, 3] is reported as 126 nM.

`COC(=O)c1nccc2c1n(Cc1nc3nc(Cl)ccc3n1CCCCO)c(=O)n2C1CC1` [Compound 62] was tested, and the EC50 [1, 5] was 294 nM and the “SI CC50/EC50” value [1] was over 339.

`O=c1n(Cc2nc3ncccc3n2CCCC(F)(F)F)c2cnccc2n1CC(F)(F)F` [Compound 72] was tested, and the “SI CC50/EC50” value [1] was over 2766 and the EC50 [1, 3] was 3.61 nM.

In the case of `CC(C)CCn1c(Cn2c(=O)n(CC(F)(F)F)c3ccc(F)cc32)nc2nc(Cl)ccc21` [Compound 92], the “SI CC50/EC50” value [1] is reported as 13572 and the EC50 [1, 3] is reported as 6.72 nM.

`O=C1c2ccccc2C(=O)N1CCCCn1c(Cn2c(=O)n(C3CC3)c3ccncc32)nc2nc(Cl)ccc21` [Compound 66] was tested, and the “SI CC50/EC50” value [1] was over 16939 and the EC50 [1, 3] was 5.9 nM.

In the case of `CC(C)C(=O)OCCCCn1c(Cn2c(=O)n(C3CC3)c3ccncc32)nc2nc(Cl)ccc21` [Compound 65], the “SI CC50/EC50” value [1] is reported as over 18110 and the EC50 [1, 3] is reported as 5.52 nM.

For `O=c1n(Cc2nc3nc(Cl)ccc3n2CCCC(F)(F)F)c2cc(F)ccc2n1CC(F)(F)F` [Compound 87], the “SI CC50/EC50” value [1] was over 49069 and the EC50 [1, 3] was 2.04 nM.

With `O=c1n(Cc2nc3ncccc3n2CCCC(F)F)c2cnccc2n1C1CC1` [Compound 43, 1-cyclopropyl-3-((1-(4,4-difluorobutyl)-1H-imidazo[4,5-b]pyridin-2-yl)methyl)-1H-imidazo[4,5-c]pyridin-2(3H)-one] the EC50 [1, 5] was 7.91 nM and the “SI CC50/EC50” value [1] was 7161.

For `CC(C)(CO)CCn1c(Cn2c(=O)n(C3CC3)c3ccncc32)nc2nc(Cl)ccc21` [Compound 88], the “SI CC50/EC50” value [1] was over 4517 and the EC50 [1, 3] was 11.1 nM.

`O=C(Nc1ccc(Cl)cc1)OCCCCn1c(Cn2c(=O)n(C3CC3)c3ccncc32)nc2nc(Cl)ccc21` [Compound 86] was tested, and the “SI CC50/EC50” value [1] was 263 and the EC50 [1, 3] was 36.8 nM.

With `CC(O)CCCn1c(Cn2c(=O)n(C3CC3)c3ccncc32)nc2nc(Cl)ccc21` (stereo not shown) [Compound 67, 3-{[5-chloro-1-(4-hydroxypentyl)-1H-imidazo[4,5-b]pyridin-2-yl]methyl}-1-cyclopropyl-1,3-dihydro-2H-imidazo[4,5-c]pyridin-2-one] the EC50 [1, 5] was 7.91 nM and the “SI CC50/EC50” value [1] was over 12643.

`O=c1n(Cc2nc3ncccc3n2CCCc2ccccc2)c2cc(F)ccc2n1C1CC1` [Compound 93] was tested, and the “SI CC50/EC50” value [1] was over 3176 and the EC50 [1, 3] was 31.5 nM.

For `O=c1n(Cc2nc3ncccc3n2CCCOC(F)(F)F)c2cnccc2n1C1CC1` [Compound 70], the “SI CC50/EC50” value [1] was over 9116 and the EC50 [1, 3] was 11 nM.

For `O=C(NC1CCCC1)OCCCCn1c(Cn2c(=O)n(C3CC3)c3ccncc32)nc2nc(Cl)ccc21` [Compound 78], the “SI CC50/EC50” value [1] was 14406 and the EC50 [1, 3] was 5.73 nM.

With `O=c1n(Cc2nc3ncccc3n2CCCC(F)(F)F)c2cc(F)ccc2n1CC(F)(F)F` [Compound 89] the “SI CC50/EC50” value [1] was over 2037 and the EC50 [1, 3] was 49.1 nM.

With `O=c1n(Cc2nc3ncccc3n2CCCc2ccccc2)c2cnccc2n1C1CC1` [Compound 91] the “SI CC50/EC50” value [1] was over 8223 and the EC50 [1, 3] was 12.2 nM.

`O=C(NCCCCn1c(Cn2c(=O)n(C3CC3)c3ccncc32)nc2nc(Cl)ccc21)OCCF` [Compound 76] was tested, and the “SI CC50/EC50” value [1] was over 24518 and the EC50 [1, 3] was 4.08 nM.

For `O=C(Nc1ccc(F)c(Cl)c1)OCCCCn1c(Cn2c(=O)n(C3CC3)c3ccncc32)nc2nc(Cl)ccc21` [Compound 84], the “SI CC50/EC50” value [1] was 354 and the EC50 [1, 3] was 18.9 nM.

Molecule `CC(C)CCn1c(Cn2c(=O)n(C3CC3)c3ccccc32)nc2cc(Br)cnc21` [Compound 30, 1-((6-bromo-3-isopentyl-3H-imidazo[4,5-b]pyridin-2-yl)methyl)-3-cyclopropyl-1H-benzo[d]imidazol-2(3H)-one] has a TOX-HELA_EC50 [2] of over 9.84 µM.
